Data as given in patent US6737383B1, “Herbicidal oxadiazolidines” (priority 1999, dated 2004).

Experiments:
winter barley = test: Test E winter barley; type: in vivo, Hordeum vulgare; conditions: Postemergence; for Plant response rating, Barley (winter): 0 to 100 scale
Procedure, shortened: (§1)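 Greenhouse test: compounds in non-phytotoxic solvent with surfactant; for postemergence, sprayed on plants at 1- to 4-leaf stage grown in 60:40 sandy loam/potting mix. Injury rated visually against untreated controls after about 21 to 28 days.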

wild mustard [1] = test: Test E wild mustard; type: in vivo, Sinapis arvensis; conditions: Preemergence
kochia [2] = test: Test E kochia; type: in vivo, Kochia scoparia; conditions: Postemergence; for Plant response rating, Kochia: 0 to 100 scale
Procedure, shortened: as §1

wild oat = test: Test E wild oat; type: in vivo, Avena fatua; conditions: Postemergence; for Plant response rating, Wild oat: 0 to 100 scale
Procedure: (§2) Compounds evaluated in this test were formulated in a non-phytotoxic solvent mixture which included a surfactant and applied to plants that were in the 1- to 4-leaf stage (postemergence application). A mixture of sandy loam soil and greenhouse potting mix in a 60:40 ratio was used for the postemergence test.
(§3) Plantings of these crops and weed species were adjusted to produce plants of appropriate size for the postemergence test. All plant species were grown using normal greenhouse practices. Crop and weed species include annual bluegrass (Poa annua), blackgrass (Alopecurus myosuroides), black nightshade (Solanum nigra), chickweed (Stellaria media), common poppy (Papaver rhoeas), deadnettle (Lamium amplexicaule), downy brome (Bromus tectorum), field violet (Viola arvensis), galium (Galium aparine), green foxtail (Setaria viridis), Italian ryegrass (Lolium multiflorum), jointed goatgrass (Aegilops cylindrica), kochia (Kochia scoparia), lambsquarters (Chenopodium album), littleseed canarygrass (Phalaris minor), rape (Brassica napus), redroot pigweed (Amaranthus retroflexus), Russian thistle (Salsola kali), scentless chamomile (Matricaria inodora), spring barley (Hordeum vulgare), sugar beet (Beta vulgaris), sunflower (Helianthus annuus), ivyleaf speedwell (Veronica hederaefolia), spring wheat (Triticum aestivum), winter wheat (Triticum aestivum), wild buckwheat (Polygonum convolvulus), wild mustard (Sinapis arvensis), wild oat (Avena fatua), windgrass (Apera spica-venti) and winter barley (Hordeum vulgare).
(§4) Treated plants and untreated controls were maintained in a greenhouse for approximately 21 to 28 days, after which all treated plants were compared to untreated controls and visually evaluated. […] A dash response (-) means no test result.

spring barley = test: Test E spring barley; type: in vivo, Hordeum vulgare; conditions: Postemergence; for Plant response rating, Spring Barley: 0 to 100 scale
Procedure, shortened: as §1

sunflower = test: Test E sunflower; type: in vivo, Helianthus annuus; conditions: Preemergence
windgrass = test: Test E windgrass; type: in vivo, Apera spica-venti; conditions: Preemergence
jointed goatgrass = test: Test E jointed goatgrass; type: in vivo, Aegilops cylindrica; conditions: Postemergence; for Plant response rating, Jointed goatgra: 0 to 100 scale
Procedure, shortened: as §1

downy brome = test: Test E downy brome; type: in vivo, Bromus tectorum; conditions: Postemergence; for Plant response rating, Downy brome: 0 to 100 scale
Procedure: as §2, §3, §4

sugar beet = test: Test E sugar beet; type: in vivo, Beta vulgaris; conditions: Postemergence; for Plant response rating, Sugar beet: 0 to 100 scale
Procedure: as §2, §3, §4

annual bluegrass = test: Test E annual bluegrass; type: in vivo, Poa annua; conditions: Postemergence; for Plant response rating, Annual bluegras: 0 to 100 scale
Procedure, shortened: as §1

kochia [3] = test: Test E kochia; type: in vivo, Kochia scoparia; conditions: Preemergence
deadnettle = test: Test E deadnettle; type: in vivo, Lamium amplexicaule; conditions: Postemergence, 0 to 100 scale
Procedure: as §2, §3, §4

wild mustard [4] = test: Test E wild mustard; type: in vivo, Sinapis arvensis; conditions: Postemergence; for Plant response rating, Wild mustard: 0 to 100 scale
Procedure, shortened: as §1

purple nutsedge = test: Test D purple nutsedge; type: in vivo, Cyperus rotundus; conditions: Postemergence, 0 to 100 scale; for Purple nutsedge plant response rating: 0 no injury, 100 complete control
Spanishneedles = test: Test D Spanishneedles; type: in vivo, Bidens bipinnata; conditions: Postemergence, 0 to 100 scale; for Spanishneedles plant response rating: 0 no injury, 100 complete control
spring wheat = test: Test E spring wheat; type: in vivo, Triticum aestivum; conditions: Postemergence; for Plant response rating, Spring Wheat: 0 to 100 scale
Procedure, shortened: as §1

Russian thistle = test: Test E Russian thistle; type: in vivo, Salsola kali; conditions: Postemergence; for Plant response rating, Russian thistle: 0 to 100 scale
Procedure: […] A mixture of sandy loam soil and greenhouse potting mix in a 60:40 ratio was used for the postemergence test.
as §3, §4

common ragweed = test: Test D common ragweed; type: in vivo, Ambrosia elatior; conditions: Postemergence, 0 to 100 scale
Alexandergrass = test: Test D Alexandergrass; type: in vivo, Brachiaria plantaginea; conditions: Postemergence
common poppy = test: Test E common poppy; type: in vivo, Papaver rhoeas; conditions: Postemergence
Procedure: as §2, §3, §4

galium = test: Test E galium; type: in vivo, Galium aparine; conditions: Postemergence; for Plant response rating, Galium: 0 to 100 scale
Procedure, shortened: as §1

sandbur = test: Test D sandbur; type: in vivo, Cenchrus echinatus; conditions: Postemergence, 0 to 100 scale; for Sandbur plant response rating: 0 no injury, 100 complete control
[5] = Rate 500 g/ha, 0 no effect, 100 complete control
[6] = Rate 250 g/ha, 0 to 100 scale where 0 is no effect and 100 is complete control
[7] = Rate 125 g/ha, 0 to 100 scale (0 no effect, 100 complete control)
[8] = Rate 500 g/ha, 0 to 100 scale where 0 is no effect and 100 is complete control
[9] = Rate 64 g/ha, 0 no injury, 100 complete control
[10] = Rate 125 g/ha, 0 no injury, 100 complete control
[11] = Rate 64 g/ha, 0 to 100 scale, 0 no injury, 100 complete control
[12] = Rate 125 g/ha, 0 to 100 scale, 0 no injury, 100 complete control
[13] = Rate 500 g/ha, 0 to 100 scale (0 no injury, 100 complete control)

C=CCn1c(=O)on(C(=O)N(c2ccc(F)cc2)C(C)C)c1=O [Compound 146]
Plant response rating, Barley (winter) (winter barley; Rate 62 g/ha): 5 | Plant response rating, Barley (winter) (winter barley; Rate 125 g/ha): 10 | Plant response rating, Barley (winter) (winter barley; [5]): 20 | Barley (winter) plant response rating (winter barley; [6]): 10 | Plant response rating, Wild mustard (wild mustard [1]; [7]): 60 | Wild mustard plant response rating (0 to 100 scale) (wild mustard [1]; Rate 250 g/ha): 95 | Plant response rating, Wild mustard (wild mustard [1]; [8]): 100 | Plant response rating, Kochia (kochia [2]; Rate 62 g/ha): 30 | Plant response rating, Kochia (kochia [2]; Rate 125 g/ha): 10 | Plant response rating, Kochia (kochia [2]; [5]): 40 | Kochia plant response rating (kochia [2]; [6]): 10 | Plant response rating, Wild oat (wild oat; Rate 62 g/ha): 20 | Plant response rating, Wild oat (wild oat; Rate 125 g/ha): 5 | Plant response rating, Wild oat (wild oat; [5]): 10 | Wild oat plant response rating (wild oat; [6]): 0 | Plant response rating, Spring Barley (spring barley; Rate 62 g/ha): 20 | Plant response rating, Spring Barley (spring barley; Rate 125 g/ha): 10 | Plant response rating, Spring Barley (spring barley; [5]): 20 | Spring Barley plant response rating (spring barley; [6]): 10 | Plant response rating, Sunflower (sunflower; [7]): 20 | Sunflower plant response rating (0 to 100 scale) (sunflower; Rate 250 g/ha): 30 | Plant response rating, Sunflower (sunflower; [8]): 30 | Plant response rating, Windgrass (windgrass; [7]): 100 | Windgrass plant response rating (0 to 100 scale) (windgrass; Rate 250 g/ha): 100 | Plant response rating, Windgrass (windgrass; [8]): 100 | Plant response rating, Jointed goatgra (jointed goatgrass; Rate 62 g/ha): 55 | Plant response rating, Jointed goatgra (jointed goatgrass; Rate 125 g/ha): 15 | Plant response rating, Jointed goatgra (jointed goatgrass; [5]): 40 | Jointed goatgra plant response rating (jointed goatgrass; [6]): 10 | Plant response rating, Downy brome (downy brome; Rate 62 g/ha): 55 | Plant response rating, Downy brome (downy brome; Rate 125 g/ha): 10 | Plant response rating, Downy brome (downy brome; [5]): 5 | Downy brome plant response rating (downy brome; [6]): 0 | Plant response rating, Sugar beet (sugar beet; Rate 62 g/ha): 0 | Plant response rating, Sugar beet (sugar beet; Rate 125 g/ha): 20 | Plant response rating, Sugar beet (sugar beet; [5]): 40 | Sugar beet plant response rating (sugar beet; [6]): 30 | Plant response rating, Annual bluegras (annual bluegrass; Rate 62 g/ha): 85 | Plant response rating, Annual bluegras (annual bluegrass; Rate 125 g/ha): 10 | Plant response rating, Annual bluegras (annual bluegrass; [5]): 65 | Annual bluegras plant response rating (annual bluegrass; [6]): 10 | Plant response rating, Kochia (kochia [3]; [7]): 0 | Kochia plant response rating (0 to 100 scale) (kochia [3]; Rate 250 g/ha): 50 | Plant response rating, Kochia (kochia [3]; [8]): 75 | Plant response rating, Deadnettle (deadnettle; Rate 62 g/ha): 50 | Plant response rating, Deadnettle (deadnettle; Rate 125 g/ha): 10 | Plant response rating, Deadnettle (deadnettle; [5]): 20 | Plant response rating, Wild mustard (wild mustard [4]; Rate 62 g/ha): 60 | Plant response rating, Wild mustard (wild mustard [4]; Rate 125 g/ha): 50 | Plant response rating, Wild mustard (wild mustard [4]; [5]): 60 | Wild mustard plant response rating (wild mustard [4]; [6]): 40 | Purple nutsedge plant response rating (purple nutsedge; Rate 64 g/ha): 0 | Purple nutsedge plant response rating (purple nutsedge; Rate 125 g/ha): 0 | Plant response rating, Purple nutsedge (purple nutsedge; Rate 250 g/ha): 0 | Plant response rating, Purple nutsedge (purple nutsedge; Rate 500 g/ha): 35 | Spanishneedles plant response rating (Spanishneedles; Rate 64 g/ha): 10 | Spanishneedles plant response rating (Spanishneedles; Rate 125 g/ha): 10 | Plant response rating, Spanishneedles (Spanishneedles; Rate 250 g/ha): 10 | Plant response rating, Spanishneedles (Spanishneedles; Rate 500 g/ha): 20 | Plant response rating, Spring Wheat (spring wheat; Rate 62 g/ha): 10 | Plant response rating, Spring Wheat (spring wheat; Rate 125 g/ha): 10 | Plant response rating, Spring Wheat (spring wheat; [5]): 20 | Spring Wheat plant response rating (spring wheat; [6]): 10 | Plant response rating, Russian thistle (Russian thistle; Rate 62 g/ha): 20 | Plant response rating, Russian thistle (Russian thistle; Rate 125 g/ha): 0 | Plant response rating, Russian thistle (Russian thistle; [5]): 0 | Russian thistle plant response rating (Russian thistle; [6]): 0 | Plant response rating, C. ragweed (common ragweed; [9]): 0 | Plant response rating, C. ragweed (common ragweed; [10]): 0 | Plant response rating, C. ragweed (common ragweed; Rate 250 g/ha): 30 | Plant response rating, C. ragweed (common ragweed; Rate 500 g/ha): 40 | Plant response rating, Alexandergrass (Alexandergrass; [11]): 10 | Plant response rating, Alexandergrass (Alexandergrass; [12]): 20 | Plant response rating, Alexandergrass (Alexandergrass; Rate 250 g/ha, 0 to 100 scale): 40 | Plant response rating, Alexandergrass (Alexandergrass; [13]): 65 | Plant response rating, Alexandergrass (Alexandergrass; Rate 500 g/ha, 0 to 100 scale): 65 | Plant response rating, Common poppy (common poppy; Rate 62 g/ha, 0 to 100 scale): 60 | Plant response rating, Comnion poppy (common poppy; Rate 125 g/ha, 0 to 100 scale): 10 | Plant response rating, Common poppy (common poppy; Rate 500 g/ha, 0 to 100 scale, 0 no effect, 100 complete control): 10 | Common poppy plant response rating (common poppy; [6]): 0 | Plant response rating, Galium (galium; Rate 62 g/ha): 50 | Plant response rating, Galium (galium; Rate 125 g/ha): 0 | Plant response rating, Galium (galium; [5]): 60 | Galium plant response rating (galium; [6]): 15 | Sandbur plant response rating (sandbur; Rate 64 g/ha): 0 | Plant response rating, Sandbur (sandbur; Rate 250 g/ha): 85 | Plant response rating, Sandbur (sandbur; Rate 500 g/ha): 80

CC(C)N(C(=O)n1oc(=O)n(C2CC2)c1=O)c1ccc(F)cc1F [Compound 299]
Purple nutsedge plant response rating (purple nutsedge; Rate 64 g/ha): 0 | Purple nutsedge plant response rating (purple nutsedge; Rate 125 g/ha): 0 | Plant response rating, Purple nutsedge (purple nutsedge; Rate 250 g/ha): 0 | Plant response rating, Purple nutsedge (purple nutsedge; Rate 500 g/ha): 100 | Spanishneedles plant response rating (Spanishneedles; Rate 64 g/ha): 0 | Spanishneedles plant response rating (Spanishneedles; Rate 125 g/ha): 0 | Plant response rating, Spanishneedles (Spanishneedles; Rate 250 g/ha): 20 | Plant response rating, Spanishneedles (Spanishneedles; Rate 500 g/ha): 100 | Plant response rating, C. ragweed (common ragweed; [9]): 100 | Plant response rating, C. ragweed (common ragweed; [10]): 50 | Plant response rating, C. ragweed (common ragweed; Rate 250 g/ha): 100 | Plant response rating, C. ragweed (common ragweed; Rate 500 g/ha): 100 | Plant response rating, Alexandergrass (Alexandergrass; [11]): 90 | Plant response rating, Alexandergrass (Alexandergrass; [12]): 100 | Plant response rating, Alexandergrass (Alexandergrass; Rate 250 g/ha, 0 to 100 scale): 100 | Plant response rating, Alexandergrass (Alexandergrass; [13]): 100 | Plant response rating, Alexandergrass (Alexandergrass; Rate 500 g/ha, 0 to 100 scale): 100 | Sandbur plant response rating (sandbur; Rate 64 g/ha): 90 | Sandbur plant response rating (sandbur; Rate 125 g/ha): 100 | Plant response rating, Sandbur (sandbur; Rate 250 g/ha): 100 | Plant response rating, Sandbur (sandbur; Rate 500 g/ha): 100
